Assay results reported in patent US10363253B2, “Combination products for the treatment of RSV” (priority 2016, dated 2019).
Where two headings read alike, the source gives them in different places.

Tested on: rgRSV224, an engineered RSV strain that encodes for eGFP
Assay type: cell-based
Description: To evaluate their combined antiviral effect against RSV, in vitro combination studies were performed with JNJ-53718678 (“compound A”) and various compounds with different mechanisms-of-action (“compound B”). In short, 9 concentrations of Compound A were combined with 6 or 7 concentrations of a certain compound B. HeLa cells were infected with rgRSV224, an engineered RSV strain that encodes for eGFP (Hallak L K, Spillmann D, Collins P L, Peeples M E. Glycosaminoglycan sulfation requirements for respiratory syncytial virus infection; Journal of Virology (2000), 74(22), 10508-13), in the presence of various concentrations of compound A and compound B individually or in combination.
Compound stock solutions were 5 mM in 100% DMSO, with following exceptions: ribavirin, 20 mM; A 60444, 10 mM; CR9501, 141 μM in PBS; palivizumab, 156 μM in PBS; MDT 637, 100 μM in methanol. First, the compounds were serially diluted in 3-fold dilution series in DMSO; CR9501 and palivizumab were serially diluted in cell culture medium, and MDT 637 in methanol. The concentration series were diluted 100-fold in cell culture medium to achieve a combination matrix. 10 μL of these compound solutions were transferred to black 384-well clear-bottom tissue-culture treated plates. Next, 10 μL of a […] HeLa cell suspension was added to achieve 3000 cells per well. Finally, 10 μL of diluted virus stock was added to achieve an MOI of 1. The final DMSO concentration of all wells was 0.5% DMSO, except for the MDT 637 experiment where it was 0.25% DMSO+0.25% methanol. Each combination of compound concentrations was tested in 4 replicates on 3 separate plates, resulting in a total of 12 replicates. The plates were incubated for 3 days at 37° C. in a humidified atmosphere at 5% CO2. The GFP signal was measured with PerkinElmer EnVision apparatus using a 405 nm filter.
The method of Harbron (Statistics in Medicine, 2010, DOI:10.1002/sim3916) was used to assess synergy. Using the Loewe definition, two compounds are characterized as being additive, synergistic or antagonistic by:
where d1 and d2 represent the doses of the two compounds that in combination produce an effect y, and Dy,1 and Dy,2 represent the doses of the two compounds that produce the same effect, y, when administered as a monotherapy. A 3PL model (3-parameter log-logistic model) was used for the monotherapy dose-response data, where the baseline response was fixed at one.
Following Harbron's approach, the following models were fitted to the data: • “Additive”: assuming no interaction between the two compounds • “Uniform”: assuming a constant interaction index τ across all dose combinations • “Linear A”: assuming the interaction index linearly depends on the log 10 dose of compound A: z=τ1+τ2 log 10(dA) • “Separate A”: assuming the interaction index τ takes a separate value for each dose of compound A The latter two models were also considered for compound B: • “Linear B”: assuming the interaction index linearly τ depends on the log 10 dose of compound B: τ=τ1+τ2 log 10(dB) • “Separate B”: assuming the interaction index τ takes a separate value for each dose of compound B

## O=C(NC1CC1)c1cc2c(s1)-c1ccccc1N(C(=O)c1ccc(NC(=O)c3cccnc3N3CCC4(CC3)COC4)cc1)CC2 [AZ-27, N-cyclopropyl-5,6-dihydro-6-[4-[[[2-(2-oxa-7-azaspiro [3.5]non-7-yl)-3-pyridinyl]carbonyl]-amino]benzoyl]-4H-thieno [3,2-d][1]benzazepine-2-carboxamide, reference compound]
A = 0, B (AZ-27) = 17
  normalized GFP signal: 1.03
A = 0, B (AZ-27) = 51
  normalized GFP signal: 1.00
A = 0, B (AZ-27) = 154
  normalized GFP signal: 0.53
A = 0, B (AZ-27) = 463
  normalized GFP signal: 0.07
A = 0, B (AZ-27) = 1389
  normalized GFP signal: 0.01
A = 0, B (AZ-27) = 4167
  normalized GFP signal: 0.00

## COc1ccc(CCNCCCN2C(=O)c3c(cc(N)c4nc(-c5ccc(C)c([N+](=O)[O-])c5)[nH]c34)C(C)(C)C2=O)cc1OC [CAS 851658-10-1, 4-amino-8-[3-[[2-(3,4-dimethoxyphenyl)ethyl]amino]propyl]-6,6-dimethyl-2-(4-methyl-3-nitrophenyl)-3H-imidazo[4,5-h]isoquinoline-7,9(6H,8H)-dione, reference compound]
A = 0, B (CAS 851658-10-1) = 1.9
  normalized GFP signal: 0.99
A = 0, B (CAS 851658-10-1) = 5.7
  normalized GFP signal: 0.97
A = 0, B (CAS 851658-10-1) = 17
  normalized GFP signal: 0.89
A = 0, B (CAS 851658-10-1) = 51
  normalized GFP signal: 0.74
A = 0, B (CAS 851658-10-1) = 154
  normalized GFP signal: 0.38
A = 0, B (CAS 851658-10-1) = 463
  normalized GFP signal: 0.05
A = 0, B (CAS 851658-10-1) = 1389
  normalized GFP signal: 0.01

## CS(=O)(=O)CCCn1c(Cn2c(=O)n(CC(F)(F)F)c3ccncc32)cc2cc(Cl)ccc21 [Compound A, 3-({5-chloro-1-[3-(methylsulfonyl)propyl]-1H-indol-2-yl}methyl)-1-(2,2,2-trifluoroethyl)-1,3-dihydro-2H-imidazo[4,5-c]pyridin-2-one]
A = 0.19 nM, B (A-60444) = 0
  normalized GFP signal: 0.96
A = 0.19 nM, B (AZ-27) = 0
  normalized GFP signal: 0.98
A = 0.19 nM, B (CAS 851658-10-1) = 0
  normalized GFP signal: 0.99
A = 0.19 nM, B (CR9501) = 0
  normalized GFP signal: 1.05
A = 0.19 nM, B (GS-5806) = 0
  normalized GFP signal: 0.99
A = 0.19 nM, B (MDT-637) = 0
  normalized GFP signal: 0.98
A = 0.19 nM, B (palivizumab) = 0
  normalized GFP signal: 1.04
A = 0.19 nM, B (pulmocide compound) = 0
  normalized GFP signal: 0.96
A = 0.19 nM, B (ribavirin) = 0
  normalized GFP signal: 0.97
A = 0.57 nM, B (A-60444) = 0
  normalized GFP signal: 0.95
A = 0.57 nM, B (AZ-27) = 0
  normalized GFP signal: 0.96
A = 0.57 nM, B (CAS 851658-10-1) = 0
  normalized GFP signal: 0.96
A = 0.57 nM, B (CR9501) = 0
  normalized GFP signal: 1.01
A = 0.57 nM, B (GS-5806) = 0
  normalized GFP signal: 0.93
A = 0.57 nM, B (MDT-637) = 0
  normalized GFP signal: 0.97
A = 0.57 nM, B (palivizumab) = 0
  normalized GFP signal: 0.98
A = 0.57 nM, B (pulmocide compound) = 0
  normalized GFP signal: 0.92
A = 0.57 nM, B (ribavirin) = 0
  normalized GFP signal: 0.95
A = 1.7 nM, B (A-60444) = 0
  normalized GFP signal: 0.83
A = 1.7 nM, B (AZ-27) = 0
  normalized GFP signal: 0.89
A = 1.7 nM, B (CAS 851658-10-1) = 0
  normalized GFP signal: 0.83
A = 1.7 nM, B (CR9501) = 0
  normalized GFP signal: 0.89
A = 1.7 nM, B (GS-5806) = 0
  normalized GFP signal: 0.83
A = 1.7 nM, B (MDT-637) = 0
  normalized GFP signal: 0.85
A = 1.7 nM, B (palivizumab) = 0
  normalized GFP signal: 0.86
A = 1.7 nM, B (pulmocide compound) = 0
  normalized GFP signal: 0.78
A = 1.7 nM, B (ribavirin) = 0
  normalized GFP signal: 0.87
A = 5.1 nM, B (A-60444) = 0
  normalized GFP signal: 0.55
A = 5.1 nM, B (AZ-27) = 0
  normalized GFP signal: 0.71
A = 5.1 nM, B (CAS 851658-10-1) = 0
  normalized GFP signal: 0.50
A = 5.1 nM, B (CR9501) = 0
  normalized GFP signal: 0.64
A = 5.1 nM, B (GS-5806) = 0
  normalized GFP signal: 0.47
A = 5.1 nM, B (MDT-637) = 0
  normalized GFP signal: 0.43
A = 5.1 nM, B (palivizumab) = 0
  normalized GFP signal: 0.57
A = 5.1 nM, B (pulmocide compound) = 0
  normalized GFP signal: 0.56
A = 5.1 nM, B (ribavirin) = 0
  normalized GFP signal: 0.63
A = 15 nM, B (A-60444) = 0
  normalized GFP signal: 0.38
A = 15 nM, B (AZ-27) = 0
  normalized GFP signal: 0.45
A = 15 nM, B (CAS 851658-10-1) = 0
  normalized GFP signal: 0.31
A = 15 nM, B (CR9501) = 0
  normalized GFP signal: 0.41
A = 15 nM, B (GS-5806) = 0
  normalized GFP signal: 0.30
A = 15 nM, B (MDT-637) = 0
  normalized GFP signal: 0.26
A = 15 nM, B (palivizumab) = 0
  normalized GFP signal: 0.38
A = 15 nM, B (pulmocide compound) = 0
  normalized GFP signal: 0.43
A = 15 nM, B (ribavirin) = 0
  normalized GFP signal: 0.39
A = 46 nM, B (A-60444) = 0
  normalized GFP signal: 0.28
A = 46 nM, B (AZ-27) = 0
  normalized GFP signal: 0.25
A = 46 nM, B (CAS 851658-10-1) = 0
  normalized GFP signal: 0.19
A = 46 nM, B (CR9501) = 0
  normalized GFP signal: 0.28
A = 46 nM, B (GS-5806) = 0
  normalized GFP signal: 0.21
A = 46 nM, B (MDT-637) = 0
  normalized GFP signal: 0.16
A = 46 nM, B (palivizumab) = 0
  normalized GFP signal: 0.28
A = 46 nM, B (pulmocide compound) = 0
  normalized GFP signal: 0.36
A = 46 nM, B (ribavirin) = 0
  normalized GFP signal: 0.25
A = 139 nM, B (A-60444) = 0
  normalized GFP signal: 0.14
A = 139 nM, B (AZ-27) = 0
  normalized GFP signal: 0.17
A = 139 nM, B (CAS 851658-10-1) = 0
  normalized GFP signal: 0.10
A = 139 nM, B (CR9501) = 0
  normalized GFP signal: 0.21
A = 139 nM, B (GS-5806) = 0
  normalized GFP signal: 0.11
A = 139 nM, B (MDT-637) = 0
  normalized GFP signal: 0.06
A = 139 nM, B (palivizumab) = 0
  normalized GFP signal: 0.17
A = 139 nM, B (pulmocide compound) = 0
  normalized GFP signal: 0.20
A = 139 nM, B (ribavirin) = 0
  normalized GFP signal: 0.15
A = 417 nM, B (A-60444) = 0
  normalized GFP signal: 0.07
A = 417 nM, B (AZ-27) = 0
  normalized GFP signal: 0.07
A = 417 nM, B (CAS 851658-10-1) = 0
  normalized GFP signal: 0.06
A = 417 nM, B (CR9501) = 0
  normalized GFP signal: 0.10
A = 417 nM, B (GS-5806) = 0
  normalized GFP signal: 0.06
A = 417 nM, B (MDT-637) = 0
  normalized GFP signal: 0.02
A = 417 nM, B (palivizumab) = 0
  normalized GFP signal: 0.09
A = 417 nM, B (pulmocide compound) = 0
  normalized GFP signal: 0.11
A = 417 nM, B (ribavirin) = 0
  normalized GFP signal: 0.08
A = 1250 nM, B (A-60444) = 0
  normalized GFP signal: 0.04
A = 1250 nM, B (AZ-27) = 0
  normalized GFP signal: 0.04
A = 1250 nM, B (CAS 851658-10-1) = 0
  normalized GFP signal: 0.04
A = 1250 nM, B (CR9501) = 0
  normalized GFP signal: 0.06
A = 1250 nM, B (GS-5806) = 0
  normalized GFP signal: 0.03
A = 1250 nM, B (MDT-637) = 0
  normalized GFP signal: −0.00
A = 1250 nM, B (palivizumab) = 0
  normalized GFP signal: 0.05
A = 1250 nM, B (pulmocide compound) = 0
  normalized GFP signal: 0.06
A = 1250 nM, B (ribavirin) = 0
  normalized GFP signal: 0.04
